ChEMBL document CHEMBL1201862, “PubChem BioAssay data set” (2004)
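Briefly, cells in 96-well plates were exposed to five compound concentrations for 48 h, and endpoints were estimated by linear interpolation. GI50 is the concentration that inhibits growth by half.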 The source made the active and inactive calls. Rule as the data show it: active = GI50 up to about 1.1 µM and inactive = higher.

Experiments:
Test in all cases: NCI anticancer screen, dose series, 48 h
A549 = test system: A549
ACHN = test system: ACHN
BT-549 = test system: BT-549
CCRF-CEM = test system: CCRF-CEM
COLO 205 = test system: COLO 205
HCT-116 = test system: HCT-116
KM12 = test system: KM12
NCI-H226 = test system: NCI-H226
NCI-H522 = test system: NCI-H522
OVCAR-8 = test system: OVCAR-8
PC-3 = test system: PC-3
SF-539 = test system: SF-539
SK-OV-3 = test system: SK-OV-3
SNB-19 = test system: SNB-19
SNB-75 = test system: SNB-75
SW-620 = test system: SW-620
U-251 = test system: U-251
UACC-62 = test system: UACC-62
MCF7 = test system: MCF7
HOP-92 = test system: HOP-92

Compound | GI50 (A549) | GI50 (ACHN) | GI50 (BT-549) | GI50 (CCRF-CEM) | GI50 (COLO 205) | GI50 (HCT-116) | GI50 (KM12) | GI50 (NCI-H226) | GI50 (NCI-H522) | GI50 (OVCAR-8) | GI50 (PC-3) | GI50 (SF-539) | GI50 (SK-OV-3) | GI50 (SNB-19) | GI50 (SNB-75) | GI50 (SW-620) | GI50 (U-251) | GI50 (UACC-62) | GI50 (MCF7) | GI50 (HOP-92)
COc1cc2cc(C(=O)N3CC(CCl)c4c3cc(O)c3ccccc43)[nH]c2c(OC)c1OC (configuration not stated) | < 0.005 µM (active) | < 0.005 µM (active) | < 0.005 µM (active) | < 0.005 µM (active) | < 0.005 µM (active) | < 0.005 µM (active) | < 0.005 µM (active) | < 0.005 µM (active) | < 0.005 µM (active) | < 0.005 µM (active) | < 0.005 µM (active) | < 0.005 µM (active) | < 0.005 µM (active) | < 0.005 µM (active) | < 0.005 µM (active) | < 0.005 µM (active) | < 0.005 µM (active) | < 0.005 µM (active) | – | –
O=c1[nH]c(=O)n(C2CC(O)C(CO)O2)cc1OCc1ccccc1 (configuration not stated) | > 100 µM (inactive) | > 100 µM (inactive) | > 100 µM (inactive) | > 100 µM (inactive) | > 100 µM (inactive) | > 100 µM (inactive) | > 100 µM (inactive) | > 100 µM (inactive) | > 100 µM (inactive) | > 100 µM (inactive) | > 100 µM (inactive) | – | > 100 µM (inactive) | > 100 µM (inactive) | > 100 µM (inactive) | – | > 100 µM (inactive) | > 100 µM (inactive) | > 100 µM (inactive) | –
CCOc1cc(/C=N\O)cc(/C=N/O)c1O | 29.5 µM (inactive) | 22.7 µM (inactive) | – | 35.3 µM (inactive) | 22.8 µM (inactive) | 38.5 µM (inactive) | 54.3 µM (inactive) | 37.9 µM (inactive) | – | 25.2 µM (inactive) | 28.2 µM (inactive) | 24 µM (inactive) | 59.4 µM (inactive) | 39.2 µM (inactive) | 23.1 µM (inactive) | 34.6 µM (inactive) | 25.6 µM (inactive) | 50.7 µM (inactive) | 9.68 µM (inactive) | 23.8 µM (inactive)
CC1CCC/C1=C(/I)C(=O)c1ccccc1 (configuration not stated) | 98.2 µM (inactive) | > 100 µM (inactive) | – | 30.4 µM (inactive) | > 100 µM (inactive) | 36.6 µM (inactive) | 25.4 µM (inactive) | 60.7 µM (inactive) | 41.7 µM (inactive) | > 100 µM (inactive) | > 100 µM (inactive) | > 100 µM (inactive) | > 100 µM (inactive) | > 100 µM (inactive) | 16.1 µM (inactive) | 53.1 µM (inactive) | > 100 µM (inactive) | 86.7 µM (inactive) | – | –
CC1(C)OP(=O)(O)CC1=O | > 100 µM (inactive) | > 100 µM (inactive) | – | – | > 100 µM (inactive) | > 100 µM (inactive) | > 100 µM (inactive) | > 100 µM (inactive) | > 100 µM (inactive) | > 100 µM (inactive) | > 100 µM (inactive) | > 100 µM (inactive) | > 100 µM (inactive) | > 100 µM (inactive) | – | > 100 µM (inactive) | > 100 µM (inactive) | > 100 µM (inactive) | > 100 µM (inactive) | > 100 µM (inactive)
Cn1cnc([N+](=O)[O-])c1Sc1nnnn1C | 99.5 µM (inactive) | 16.2 µM (inactive) | – | 7.46 µM (inactive) | 12.8 µM (inactive) | 14.9 µM (inactive) | 56.9 µM (inactive) | 44.7 µM (inactive) | 6.38 µM (inactive) | 17.2 µM (inactive) | – | 18.2 µM (inactive) | > 100 µM (inactive) | > 100 µM (inactive) | 25.3 µM (inactive) | 13.1 µM (inactive) | 18 µM (inactive) | 17.1 µM (inactive) | – | 12.3 µM (inactive)
Cc1ccc(S(=O)(=O)N2CCN(S(=O)(=O)c3ccc(C)cc3)Cc3ccccc3C2)cc1 | 80.5 µM (inactive) | 36.9 µM (inactive) | 64.9 µM (inactive) | > 100 µM (inactive) | > 100 µM (inactive) | > 100 µM (inactive) | > 100 µM (inactive) | 60.3 µM (inactive) | 21.6 µM (inactive) | 82.6 µM (inactive) | – | > 100 µM (inactive) | – | 21.6 µM (inactive) | – | > 100 µM (inactive) | – | 10.1 µM (inactive) | 50.5 µM (inactive) | –
COc1ccc(C(=O)C(c2ccc(OC)cc2)C2(O)C(=O)Nc3c(C)cc(Cl)cc32)cc1 (configuration not stated) | > 100 µM (inactive) | > 100 µM (inactive) | – | 10.3 µM (inactive) | > 100 µM (inactive) | 70.3 µM (inactive) | > 100 µM (inactive) | 76.6 µM (inactive) | 28 µM (inactive) | 92.7 µM (inactive) | – | 69.8 µM (inactive) | > 100 µM (inactive) | > 100 µM (inactive) | 33.2 µM (inactive) | > 100 µM (inactive) | 45.2 µM (inactive) | 23.2 µM (inactive) | – | 21.9 µM (inactive)
C=CCC1C(=O)CC2(C)CC(=O)C(CC=C)C12C (configuration not stated) | > 100 µM (inactive) | > 100 µM (inactive) | – | > 100 µM (inactive) | > 100 µM (inactive) | > 100 µM (inactive) | > 100 µM (inactive) | > 100 µM (inactive) | > 100 µM (inactive) | > 100 µM (inactive) | – | > 100 µM (inactive) | > 100 µM (inactive) | > 100 µM (inactive) | 76.9 µM (inactive) | > 100 µM (inactive) | > 100 µM (inactive) | > 100 µM (inactive) | – | > 100 µM (inactive)
COC(=O)Cn1cnc2c(Cl)nc(Nc3ccccc3)nc21 | 79.6 µM (inactive) | > 100 µM (inactive) | 86.5 µM (inactive) | 27.2 µM (inactive) | 59.6 µM (inactive) | 35.5 µM (inactive) | > 100 µM (inactive) | > 100 µM (inactive) | – | 25.9 µM (inactive) | 20.7 µM (inactive) | > 100 µM (inactive) | > 100 µM (inactive) | 67.9 µM (inactive) | > 100 µM (inactive) | 65 µM (inactive) | 66.7 µM (inactive) | 22.6 µM (inactive) | 76.2 µM (inactive) | –
O=C(/C=C/c1ccc2c(c1)OCO2)c1ccccc(=O)c1O | – | 8.24 µM (inactive) | 15.7 µM (inactive) | 0.0376 µM (active) | 4.94 µM (inactive) | 6.05 µM (inactive) | 8.43 µM (inactive) | 35.6 µM (inactive) | 9.62 µM (inactive) | 4.3 µM (inactive) | 21.5 µM (inactive) | – | – | 8.71 µM (inactive) | 12.3 µM (inactive) | 12 µM (inactive) | 15.9 µM (inactive) | 7.73 µM (inactive) | – | 13.7 µM (inactive)
CC1(C)CC(=O)c2c(nc3c(ccc4ccccc43)c2-c2ccc(NC(=O)CCCCC(=O)Nc3ccc(-c4c5c(nc6c4ccc4ccccc46)CC(C)(C)CC5=O)cc3)cc2)C1 | 53.7 µM (inactive) | 24 µM (inactive) | – | 20.7 µM (inactive) | 26.7 µM (inactive) | 23.9 µM (inactive) | 20.7 µM (inactive) | 15.2 µM (inactive) | 29.5 µM (inactive) | 26.1 µM (inactive) | 27.4 µM (inactive) | 20.6 µM (inactive) | 37.2 µM (inactive) | 69.2 µM (inactive) | 16.3 µM (inactive) | 38.6 µM (inactive) | 28.4 µM (inactive) | – | 32.2 µM (inactive) | –
COC1=NC(NC2OCC(O)C(O)C2O)=C(NC(C)=O)CN1C (configuration not stated) | > 100 µM (inactive) | > 100 µM (inactive) | > 100 µM (inactive) | > 100 µM (inactive) | > 100 µM (inactive) | > 100 µM (inactive) | > 100 µM (inactive) | > 100 µM (inactive) | > 100 µM (inactive) | > 100 µM (inactive) | – | > 100 µM (inactive) | > 100 µM (inactive) | > 100 µM (inactive) | > 100 µM (inactive) | > 100 µM (inactive) | – | > 100 µM (inactive) | > 100 µM (inactive) | > 100 µM (inactive)
CCCC/N=C(/c1ccccc1)N1CCOCC1 | – | > 100 µM (inactive) | > 100 µM (inactive) | > 100 µM (inactive) | > 100 µM (inactive) | > 100 µM (inactive) | > 100 µM (inactive) | > 100 µM (inactive) | – | > 100 µM (inactive) | > 100 µM (inactive) | > 100 µM (inactive) | > 100 µM (inactive) | > 100 µM (inactive) | 1.25 µM (inactive) | > 100 µM (inactive) | > 100 µM (inactive) | > 100 µM (inactive) | > 100 µM (inactive) | –
O=C(O)CCC(/N=C(\C(=N\C(CCC(=O)O)C(=O)O)c1ccccc1)c1ccccc1)C(=O)O (configuration not stated) | > 100 µM (inactive) | > 100 µM (inactive) | 90.2 µM (inactive) | – | > 100 µM (inactive) | > 100 µM (inactive) | > 100 µM (inactive) | > 100 µM (inactive) | – | > 100 µM (inactive) | > 100 µM (inactive) | – | > 100 µM (inactive) | > 100 µM (inactive) | > 100 µM (inactive) | > 100 µM (inactive) | > 100 µM (inactive) | > 100 µM (inactive) | > 100 µM (inactive) | –
C[N+](C)(C)C1CC([N+](C)(C)C)C2c3ccccc3C21 (configuration not stated) | > 100 µM (inactive) | > 100 µM (inactive) | – | > 100 µM (inactive) | > 100 µM (inactive) | > 100 µM (inactive) | > 100 µM (inactive) | > 100 µM (inactive) | > 100 µM (inactive) | > 100 µM (inactive) | – | > 100 µM (inactive) | > 100 µM (inactive) | > 100 µM (inactive) | > 100 µM (inactive) | > 100 µM (inactive) | > 100 µM (inactive) | > 100 µM (inactive) | – | > 100 µM (inactive)
